Assays:
[1] = biological target: T1, r-Mal d 1.01 (recombinant Mal d 1.0108) (Malus domestica, UniProt Q9SYW3); experiment: 1H-15N-HSQC NMR chemical shift perturbation; format: binding; conditions: 50 mM phosphate pH 7, 10% D2O, 25 °C; 100 μM 15N-protein, 0.1-2 mM ligand; no specific site, scattered over surface
T1 construct: gene MALD1; 15N-labelled in M9 medium for HSQC NMR; one cysteine (Cys107)
T1 sequence (Q9SYW3 1-159): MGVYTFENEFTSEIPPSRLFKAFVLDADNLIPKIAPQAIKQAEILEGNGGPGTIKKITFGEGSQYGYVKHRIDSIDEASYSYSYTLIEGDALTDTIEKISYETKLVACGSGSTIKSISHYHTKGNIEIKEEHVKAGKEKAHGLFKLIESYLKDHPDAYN

[2] = biological target: T1, r-Mal d 1.01 (recombinant Mal d 1.0108); experiment: isothermal titration calorimetry, independent model; conditions: 0.1 M sodium phosphate pH 7, 25 °C; 0.2 mM protein, 4 mM ligand injected; stoichiometry fixed at n = 1; weak nonspecific surface binding; unreliable
[3] = biological target: T1, r-Mal d 1.01 (recombinant Mal d 1.0108); experiment: untargeted bottom-up LC-MS of tryptic peptides; format: binding; conditions: covalent; Michael addition at Cys107 (peptide LVACGSGSTIK) via o-quinone formed by autoxidation; excess ligand in water, 20 min, room temperature

SMILES | 1H-15N-HSQC NMR chemical shift perturbation [1] | KD [2] | % modification of Cys107 peptide [3]
O=C(/C=C/c1ccc(O)c(O)c1)O[C@@H]1C[C@](O)(C(=O)O)C[C@@H](O)[C@H]1O [CA, chlorogenic acid] | CA showed by far the strongest impact on the protein surface |  | 
Oc1cc(O)c2c(c1)O[C@H](c1ccc(O)c(O)c1)[C@@H](O)C2 [CAT, (+)-catechin] |  | 0.5 ± 0.0 mM | 
Oc1cc(O)c2c(c1)O[C@H](c1ccc(O)c(O)c1)[C@H](O)C2 [EC, (−)-epicatechin] |  | 1.4 mM | ~ 30%
Oc1cc(O)c2c(c1)O[C@H](c1ccc(O)c(O)c1)[C@H](O)[C@H]2c1c(O)cc(O)c2c1O[C@H](c1ccc(O)c(O)c1)[C@@H](O)C2 [PC B1, procyanidin B1] |  | 1.2 ± 0.2 mM | 
Oc1cc(O)c2c(c1)O[C@H](c1ccc(O)c(O)c1)[C@H](O)[C@H]2c1c(O)cc(O)c2c1O[C@H](c1ccc(O)c(O)c1)[C@H](O)C2 [PC B2, procyanidin B2] |  | 0.6 ± 0.0 mM | 
